Assay results published in US20060205733A1, “Endothelin a receptor antagonists in combination with phosphodiesterase 5 inhibitors and uses thereof” (Encysive Pharmaceuticals, priority 2004, published 2006).
Counter-ions that a name gives are not always drawn. Like-named read-outs stand apart in the source and are kept apart here. Each block holds one compound with its values, some of them ahead of it.

What was measured:
ETB [1] = target: T1, ETB (Homo sapiens, UniProt P24530); details: read-out: Binding K1 (nM) to ETB; cited from earlier work
T1 sequence (P24530 27-442): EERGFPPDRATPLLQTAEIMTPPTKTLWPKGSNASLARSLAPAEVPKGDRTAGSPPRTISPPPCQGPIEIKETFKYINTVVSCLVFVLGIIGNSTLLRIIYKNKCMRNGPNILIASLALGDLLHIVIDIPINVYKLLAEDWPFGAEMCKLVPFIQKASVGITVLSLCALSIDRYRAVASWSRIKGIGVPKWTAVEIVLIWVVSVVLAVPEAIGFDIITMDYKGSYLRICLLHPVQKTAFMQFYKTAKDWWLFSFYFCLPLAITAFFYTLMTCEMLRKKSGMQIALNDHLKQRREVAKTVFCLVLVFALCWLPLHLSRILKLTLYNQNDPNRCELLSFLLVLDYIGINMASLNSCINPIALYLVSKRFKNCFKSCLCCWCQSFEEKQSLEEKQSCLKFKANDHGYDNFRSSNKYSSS

cytochrome P450 enzymes = details: in vivo; cited from earlier work
[2] = in vivo; cited from earlier work
bile salt export pump = bile salt export pump (Homo sapiens, UniProt O95342); details: cited from earlier work
ETA [3] = target: T2, ETA (Homo sapiens, UniProt P25101); details: cited from earlier work; for Selectivity: ETA versus ETB, Table 2
T2 sequence (P25101 21-427): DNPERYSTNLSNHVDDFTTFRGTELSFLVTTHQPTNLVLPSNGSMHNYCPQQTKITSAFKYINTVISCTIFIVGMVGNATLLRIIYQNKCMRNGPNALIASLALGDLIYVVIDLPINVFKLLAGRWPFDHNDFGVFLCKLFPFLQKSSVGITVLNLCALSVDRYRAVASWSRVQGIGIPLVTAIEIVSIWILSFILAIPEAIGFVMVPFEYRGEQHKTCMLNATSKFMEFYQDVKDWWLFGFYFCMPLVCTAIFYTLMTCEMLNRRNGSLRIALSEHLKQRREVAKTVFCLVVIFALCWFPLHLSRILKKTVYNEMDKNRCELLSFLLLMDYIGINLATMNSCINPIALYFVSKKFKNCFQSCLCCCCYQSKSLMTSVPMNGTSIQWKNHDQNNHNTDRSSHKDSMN

[4] = Pharmacokinetic drug interaction study, sitaxsentan and sildenafil; assay type: in vivo, human; details: for Cmax: healthy subjects; for Cmax / AUC0-t / AUC∞ / CL/F / t½ / λz / AUC(0-inf) / Vd/F / half-life: mean ± SD; for Tmax: median; for Vd/F: read-out: Vz/F; for half-life: read-out: t½ (converted); for Effect of sildenafil administration on sitaxsentan levels / pharmacokinetics: single 100 mg sildenafil on day 7 of 100 mg sitaxsentan daily
Experimental: A pharmacokinetic drug interaction study was performed using 24 individuals. In the study, a group of 24 normal, healthy volunteers participated in two treatment periods. […] During the other treatment period, the subjects received placebo for seven days and 100 mg of VIAGRA on the seventh day. Twelve subjects were randomly assigned to each treatment period. When the subjects finished one treatment period, they were switched to the other treatment period.
Samples were drawn (in duplicate) once on days 1, 3, 5 and 6; 15 times on day 7 and once again on day 8 for each treatment period. The samples were stored at a nominal temperature of −20° C. for a duration not exceeding 38 days. All samples were analyzed with a set of calibration standards and low, medium and high concentration Quality Control samples.

ETB [5] = target: T1, ETB; details: concentrations up to 100 μM; cited from earlier work
ETA [6] = target: T3, ETA (Sus scrofa, UniProt Q29010); details: read-out: IC50, inhibition of 125I-labeled endothelin-1 binding, cited from earlier work
T3 construct: from tissue; host or cells: aortic smooth muscle, ventricle membranes, cultured aortic smooth muscle cells
T3 sequence (Q29010 21-427): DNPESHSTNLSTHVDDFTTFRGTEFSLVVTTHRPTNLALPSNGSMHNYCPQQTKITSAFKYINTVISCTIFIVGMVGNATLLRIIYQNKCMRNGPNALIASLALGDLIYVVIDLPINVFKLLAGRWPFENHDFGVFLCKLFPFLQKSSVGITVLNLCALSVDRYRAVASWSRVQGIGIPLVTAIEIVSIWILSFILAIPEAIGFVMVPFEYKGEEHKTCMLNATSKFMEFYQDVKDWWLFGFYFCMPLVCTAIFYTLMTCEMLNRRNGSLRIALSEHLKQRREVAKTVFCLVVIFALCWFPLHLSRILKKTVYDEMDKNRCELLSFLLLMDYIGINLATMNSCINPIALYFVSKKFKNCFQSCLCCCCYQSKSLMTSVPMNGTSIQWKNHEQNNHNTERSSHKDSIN

[7] = in vivo; cited from earlier work; remark: listed apart in the source
ETA [8] = target: T2, ETA; details: cited from earlier work
cytochrome P450 3A4 = target: T4, cytochrome P450 3A4 (Homo sapiens, UniProt P08684); assay: Cytochrome P450 3A4 inhibition in cultured hepatocytes; assay type: in vitro ADME
T4 construct: endogenous in cells; host or cells: cultured hepatocytes

[9] = in vivo; cited from earlier work; remark: listed apart in the source
[10] = read-out: Binding K1 (nM) to ETA
[11] = single 100 mg oral sildenafil after 100 mg sitaxsentan daily for seven days
[12] = single 100 mg oral sildenafil after placebo daily for seven days
[13] = sitaxsentan versus placebo pretreatment, natural log-transformed data
[14] = human, plasma, po, 100 mg, single 100 mg oral sildenafil after 100 mg sitaxsentan daily for seven days
[15] = human, plasma, po, 100 mg, single 100 mg oral sildenafil after placebo daily for seven days

Chain of bile salt export pump (O95342 whole entry): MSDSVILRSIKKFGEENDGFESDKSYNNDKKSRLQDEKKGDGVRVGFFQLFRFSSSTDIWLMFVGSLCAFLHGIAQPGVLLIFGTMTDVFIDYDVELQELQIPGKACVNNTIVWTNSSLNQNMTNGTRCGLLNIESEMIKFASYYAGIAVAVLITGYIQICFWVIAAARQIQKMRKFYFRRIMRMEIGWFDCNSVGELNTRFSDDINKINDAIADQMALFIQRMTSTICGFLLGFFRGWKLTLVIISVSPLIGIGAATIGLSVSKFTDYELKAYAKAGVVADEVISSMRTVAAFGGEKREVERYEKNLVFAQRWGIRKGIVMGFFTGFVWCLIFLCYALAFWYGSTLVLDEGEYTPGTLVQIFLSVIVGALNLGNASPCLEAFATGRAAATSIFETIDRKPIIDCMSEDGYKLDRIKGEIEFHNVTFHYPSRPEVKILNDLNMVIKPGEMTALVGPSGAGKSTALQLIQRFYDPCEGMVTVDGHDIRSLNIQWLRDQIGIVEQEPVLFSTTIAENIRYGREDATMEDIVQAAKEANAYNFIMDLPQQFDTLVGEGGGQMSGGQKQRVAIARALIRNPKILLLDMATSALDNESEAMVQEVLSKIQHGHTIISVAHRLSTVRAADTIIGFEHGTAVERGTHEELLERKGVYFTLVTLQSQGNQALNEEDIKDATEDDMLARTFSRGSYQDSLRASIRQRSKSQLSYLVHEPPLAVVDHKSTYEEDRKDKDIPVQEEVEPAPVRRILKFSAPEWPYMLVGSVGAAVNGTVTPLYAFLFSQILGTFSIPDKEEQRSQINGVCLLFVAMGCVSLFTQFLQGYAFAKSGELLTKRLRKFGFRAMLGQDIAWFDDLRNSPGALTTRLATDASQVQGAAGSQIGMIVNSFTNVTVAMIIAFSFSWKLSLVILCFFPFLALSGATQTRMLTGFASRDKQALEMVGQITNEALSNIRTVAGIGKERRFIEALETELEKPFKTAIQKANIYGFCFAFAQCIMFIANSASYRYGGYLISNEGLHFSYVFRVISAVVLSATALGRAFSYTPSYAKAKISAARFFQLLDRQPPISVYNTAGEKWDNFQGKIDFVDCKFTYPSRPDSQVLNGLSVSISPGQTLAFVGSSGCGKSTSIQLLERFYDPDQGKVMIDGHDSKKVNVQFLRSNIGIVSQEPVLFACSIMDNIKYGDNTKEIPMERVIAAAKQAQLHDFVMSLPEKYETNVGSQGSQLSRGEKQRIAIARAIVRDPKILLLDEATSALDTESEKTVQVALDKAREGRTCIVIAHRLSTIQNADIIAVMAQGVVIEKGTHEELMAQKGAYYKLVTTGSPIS
T4 sequence (P08684 whole entry): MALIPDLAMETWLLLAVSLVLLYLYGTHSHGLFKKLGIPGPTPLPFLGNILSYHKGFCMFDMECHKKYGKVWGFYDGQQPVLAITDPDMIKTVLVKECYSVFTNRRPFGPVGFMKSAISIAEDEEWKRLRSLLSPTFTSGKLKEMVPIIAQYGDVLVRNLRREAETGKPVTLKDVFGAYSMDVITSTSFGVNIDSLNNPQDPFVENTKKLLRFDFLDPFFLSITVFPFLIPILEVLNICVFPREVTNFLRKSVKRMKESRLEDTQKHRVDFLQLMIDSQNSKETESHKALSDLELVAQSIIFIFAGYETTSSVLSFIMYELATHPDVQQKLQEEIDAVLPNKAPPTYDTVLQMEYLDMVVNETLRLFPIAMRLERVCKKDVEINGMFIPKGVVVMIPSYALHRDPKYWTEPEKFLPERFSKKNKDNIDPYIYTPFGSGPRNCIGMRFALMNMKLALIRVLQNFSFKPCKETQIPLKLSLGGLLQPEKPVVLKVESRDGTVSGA

Compound: FR-139317
Ki (ETB [1]): 7300 nM

Compound: COc1ccccc1Oc1c(NS(=O)(=O)c2ccc(C(C)(C)C)cc2)nc(-c2ncccn2)nc1OCCO [Bosentan]
Induction of cytochrome P450 enzymes (cytochrome P450 enzymes): Causes inhibition,
Metabolism [2]: Through 3A4 and 2C9
Route of elimination [2]: Hepatic
t1/2 [2]: 5 h
Effect on bile salt (bile salt export pump): Inhibits bile salt

Compound: COc1cc(OC)nc(O[C@H](C(=O)O)C(OC)(c2ccccc2)c2ccccc2)n1 [LU-135252]
Selectivity (ETA [3]): 130
Ki (ETA [3]; [10]): 1.4 nM
Ki (ETB [1]): 184 nM

Compound: COc1nc(C)cnc1NS(=O)(=O)c1cccnc1-c1ccc(CC(C)(C)C(=O)O)cc1 [ZD-1811]
Selectivity (ETA [3]): 1500
Ki (ETA [3]; estimated from the IC∞ value, read-out: Binding K1 (nM) to ETA, K1 estimated from the IC∞ value): 1.3 nM
Ki (ETB [1]): > 2000 nM

Compound: COc1ccccc1Oc1c(NS(=O)(=O)c2ccc(C)cn2)nc(-c2ccnc(-c3nnn[nH]3)c2)nc1OCCO [Ro-61.1790]
Selectivity (ETA [3]): 1000
Ki (ETA [3]; [10]): 0.13 nM
Ki (ETB [1]): > 130 nM

Compound: Cc1noc(NS(=O)(=O)c2cccc3c(N(C)C)cccc23)c1C [BMS-182874]
Ki (ETB [1]): > 50000 nM

Compound: CCCOc1ccc2c(c1)[C@@H](c1ccc(OC)cc1OCCO)[C@H](C(=O)O)[C@H]2c1ccc2c(c1)OCO2 [SB-217242]
Selectivity (ETA [3]): 101

Compound: CCCCc1ccc2c(n1)[C@@H](c1ccc(OC)cc1C[C@H](C)C(=O)O)[C@H](C(=O)O)[C@H]2c1ccc2c(c1)OCO2 [J-104132]
Selectivity (ETA [3]): 2.9
Ki (ETA [3]; [10]): 0.034 nM
Ki (ETB [1]): 0.1 nM

Effect of sitaxsentan on levels of the active metabolite ([4]; in the presence of sitaxsentan): No effects
Cmax [4, 11]: 104 ± 40.8 ng/mL
AUC0-t [4, 11]: 389 ± 105 ng·h/mL
AUC∞ [4, 11]: 425 ± 115 ng·h/mL
CL/F [4, 11]: 529 ± 164 mL/min
t½ [4, 11]: 5.14 ± 2.13 h
λz [4, 11]: 0.1544 ± 0.0552 h⁻¹
Tmax [4, 11]: 1.00 h
Cmax [4, 12]: 109 ± 53.1 ng/mL
AUC0-t [4, 12]: 372 ± 107 ng·h/mL
AUC∞ [4, 12]: 440 ± 112 ng·h/mL
CL/F [4, 12]: 524 ± 234 mL/min
t½ [4, 12]: 05.1 ± 1.63 h
λz [4, 12]: 0.1506 ± 0.0569 h⁻¹
Tmax [4, 12]: 1.00 h
AUC0-t, geometric mean ratio (%) estimate [4, 13]: 112.43%
AUC∞, geometric mean ratio (%) estimate [4, 13]: 105.78%
CL/F, geometric mean ratio (%) estimate [4, 13]: 88.95%
Cmax, geometric mean ratio (%) estimate [4, 13]: 100.70%
Vz/F, geometric mean ratio (%) estimate [4, 13]: 94.89%
Compound: CCCc1nn(C)c2c(=O)[nH]c(-c3cc(S(=O)(=O)N4CCNCC4)ccc3OCC)nc12 [N-Desmethyl Sildenafil]

Compound: CCCOc1ccc2c(c1)[C@@H](c1ccc(OC)cc1OCC(=O)O)[C@H](C(=O)O)[C@H]2c1ccc2c(c1)OCO2 [SB-209670]
Selectivity (ETA [3]): 90

Cmax ([4]; human, plasma, po, 100 mg, single 100 mg oral sildenafil after 100 mg sitaxsentan daily for seven days, read-out: Cmax): 440 ± 232 ng/mL
AUC(0-inf) [4, 14]: 1650 ng·h/mL
AUC0-t ([4]; human, plasma, po, 100 mg, single 100 mg oral sildenafil after 100 mg sitaxsentan daily for seven days, read-out: AUC0-t): 1580 ng·h/mL
Vd/F [4, 14]: 34.8 ± 11.5 L
half-life [4, 14]: 2.82 ± 0.45 h
Tmax ([4]; human, plasma, po, 100 mg, single 100 mg oral sildenafil after 100 mg sitaxsentan daily for seven days, read-out: Tmax): 1.25 h
Cmax ([4]; human, plasma, po, 100 mg, single 100 mg oral sildenafil after placebo daily for seven days, read-out: Cmax): 377 ± 208 ng/mL
AUC(0-inf) [4, 15]: 1300 ng·h/mL
AUC0-t ([4]; human, plasma, po, 100 mg, single 100 mg oral sildenafil after placebo daily for seven days, read-out: AUC0-t): 1220 ng·h/mL
Vd/F [4, 15]: 43.6 ± 18.9 L
half-life [4, 15]: 2.76 ± 0.45 h
Tmax ([4]; human, plasma, po, 100 mg, single 100 mg oral sildenafil after placebo daily for seven days, read-out: Tmax): 1 h
Increase of AUC∞ (area under the plasma concentration/time curve) ([4]; in the presence of sitaxsentan): 28%
Increase of Cmax (maximum concentration) ([4]; in the presence of sitaxsentan): 18%
CL/F [4, 11]: 147 ± 56.4 mL/min
λz [4, 11]: 0.2514 ± 0.0364 h⁻¹
CL/F [4, 12]: 184 ± 69.0 mL/min
λz [4, 12]: 0.2584 ± 0.0444 h⁻¹
Compound: CCCc1nn(C)c2c(=O)[nH]c(-c3cc(S(=O)(=O)N4CCN(C)CC4)ccc3OCC)nc12 [Sildenafil, 1-[[3-(6,7-dihydro-1-methyl-7-oxo-3-propyl-1H-pyrazolo[4,3-d]pyrimidin-5-yl)-4-ethoxyphenyl]sulfonyl]-4-methylpiperazine citrate]

Compound: cyclo(D-Glu-L-Ala-allo-D-Ile-L-Leu-D-Trp) [BE-18257B]
Inhibition of binding to receptors in tissues in which ETB predominates (ETB [5]): fails to inhibit binding
IC50 (ETA [6]; aortic smooth muscle): 1400 nM
IC50 (ETA [6]; cultured aortic smooth muscle cells): 500 nM
IC50 (ETA [6]; ventricle membranes): 800 nM

Compound: Cc1ccc(-c2c(NS(=O)(=O)c3ccc(C(C)(C)CO)cc3)ncnc2OCCOc2ncc(Br)cn2)cc1 [T-0201]
Ki (ETA [3]; [10]): 0.015 nM

Compound: CC1(C)CC[C@]2(C(=O)[O-])CC[C@]3(COC(=O)/C=C/c4cc([O-])ccc4NC(=O)/C=C/C(=O)O)C(=CC[C@@H]4[C@@]5(C)CCC(=O)C(C)(C)[C@@H]5CC[C@]43C)[C@@H]2C1.[Na+].[Na+] [S-0139]
Selectivity (ETA [3]): 1000
Ki (ETA [3]; [10]): 1 nM
Ki (ETB [1]): 1000 nM

Effect of sildenafil administration on sitaxsentan levels / pharmacokinetics ([4]; listed as sitaxsentan): did not alter sitaxsentan levels
Compound: Cc1cc2c(cc1CC(=O)c1sccc1S(=O)(=O)Nc1onc(C)c1Cl)OCO2 [Sitaxsentan]
Induction of cytochrome P450 enzymes (cytochrome P450 enzymes): No induction
Effect on bilirubin [7]: No effect.
Selectivity (ETA [3]): 10,000
Selectivity for ETA:ETB (ETA [8]; Table 4): 6500
ETA:ETB selectivity ratio (ETA [8]; based upon in vitro receptor affinity ratios): 6500
Ki (ETA [8]; read-out: Intrinsic potency to ETA (Ki)): 0.45 nM
Metabolism [2]: Through 3A4 and 2C9
t1/2 [2]: 10 h
Ki (ETB [1]): > 4300 nM
Effect on bile salt (bile salt export pump): Does not accumulate

Cytochrome P450 3A4 inhibition (cytochrome P450 3A4): weak
Effect of sildenafil administration on sitaxsentan levels / pharmacokinetics [4]: does not appear to impact
Compound: Cc1cc2c(cc1CC(=O)c1sccc1S(=O)(=O)Nc1onc(C)c1Cl)OCO2 [THELIN]
Selectivity as an antagonist for ETA compared to ETB (ETA [8]): approximately 6,500 fold
Side effects [9]: liver dysfunction (increased ALT and AST), headache, edema, constipation, nasal congestion and flushing
